Experimental data reported in patent US10765114B2, “4-amino-6-(pyridyl and 2-substitutedphenyl)-picolinates and 6-amino-2-(pyridyl and 2-substitutedphenyl)-pyrimidine-4-carboxylates and their use as herbicides” (Dow AgroSciences LLC, priority 2013, dated 2020).

How the values were obtained:
Assay in all cases: Postemergence Herbicidal Activity in Direct Seeded Rice
Assay type in all cases: in vivo
[1] = tested on: SEBEX: hemp sesbania, Sesbania exaltata; conditions: for Visual Growth Reduction (%) 21 Days After Application, SEBEX: postemergence, direct seeded rice; for GR50, SEBEX: Growth reduction of 50% of plant growth; for GR50, SEBEX / GR80, SEBEX: probit analysis; for GR80, SEBEX: Growth reduction of 80% of plant growth
Source text: (§1) Seeds or nutlets of the desired test plant species were planted in a soil matrix prepared by mixing a loam soil (43 percent silt, 19 percent clay, and 38 percent sand, with a pH of about 8.1 and an organic matter content of about 1.5 percent) and river sand in an 80 to 20 ratio. The soil matrix was contained in plastic pots with a surface area of 139.7 cm^2. When required to ensure good germination and healthy plants, a fungicide treatment and/or other chemical or physical treatment was applied. The plants were grown for 10-17 days in a greenhouse with an approximate 14-h photoperiod which was maintained at about 29° C. during the day and 26° C. during the night. Nutrients and water were added on a regular basis and supplemental lighting was provided with overhead metal halide 1000-Watt lamps as necessary. The plants were employed for testing when they reached the second or third true leaf stage.
(§2) A weighed amount, determined by the highest rate to be tested, of each test compound was placed in 25 mL glass vials and dissolved in a volume of 97:3 v/v acetone-DMSO to obtain 12× stock solutions. […] The concentrated stock solutions were added to the spray solutions so that the final acetone and DMSO concentrations were 16.2% and 0.5%, respectively. Spray solutions were diluted to the appropriate final concentrations with the addition of 10 mL of an aqueous mixture of 1.5% (v/v) Agri-dex crop oil concentrate. The final spray solutions contained 1.25% (v/v) Agri-dex crop oil concentrate. Compound requirements are based upon a 12 mL application volume at a rate of 187 L/ha. Formulated compounds were applied to the plant material with an overhead Mandel track sprayer equipped with 8002E nozzles calibrated to deliver 187 L/ha over an application area of 0.503 square meters (m^2) at a spray height of 18 inches (43 cm) above average plant canopy height. Control plants were sprayed in the same manner with the solvent blank.
(§3) The treated plants and control plants were placed in a greenhouse as described above and watered by sub-irrigation to prevent wash-off of the test compounds. After 20-22 days, the condition of the test plants, compared with that of the untreated plants, was determined visually and scored on a scale of 0 to 100 percent where 0 corresponds to no injury and 100 corresponds to complete kill and presented as indicated in Table A.
(§4) By applying the well-accepted probit analysis as described by J. Berkson in Journal of the American Statistical Society, 48, 565 (1953) and by D. Finney in “Probit Analysis” Cambridge University Press (1952), herbicidal injury of a specific compound at various rates can be used to calculate GR20, GR50, GR80 and GR90 values, which are defined as growth reduction factors that correspond to the effective dose of herbicide required to provide plant growth reduction (GR) of 20 percent, 50 percent, 80 percent and 90 percent, respectively. Probit analysis was applied to data collected from multiple dose rates of individual compounds utilizing the procedures explained in the following examples. The analysis of those dose rates is captured in the following tables

[2] = tested on: SCPJU: Japanese bulrush, Schoenoplectus juncoides; conditions: for GR50, SCPJU: Growth reduction of 50% of plant growth; for GR50, SCPJU / GR80, SCPJU: probit analysis; for GR80, SCPJU: Growth reduction of 80% of plant growth; for Visual Growth Reduction (%) 21 Days After Application, SCPJU: postemergence, direct seeded rice
Source text: as §1, §2, §3, §4

[3] = tested on: BRAPP: broadleaf signalgrass, Brachiaria platyphylla; conditions: for Visual Growth Reduction (%) 21 Days After Application, BRAPP: postemergence, direct seeded rice; for GR50, BRAPP: Growth reduction of 50% of plant growth; for GR50, BRAPP / GR80, BRAPP: probit analysis; for GR80, BRAPP: Growth reduction of 80% of plant growth
Source text: as §1, §2, §3, §4

[4] = tested on: CYPSS: sedge including small-flower flatsedge (Cyperus difformis), yellow nutsedge (Cyperus esculentus), rice flatsedge (Cyperus iria); conditions: for Visual Growth Reduction (%) 21 Days After Application, CYPSS: postemergence, direct seeded rice; for GR50, CYPSS: Growth reduction of 50% of plant growth; for GR50, CYPSS / GR80, CYPSS: probit analysis; for GR80, CYPSS: Growth reduction of 80% of plant growth
Source text: as §1, §2, §3, §4

ORYSS: Oryza sativa = conditions: for Visual Growth Reduction (%) 21 Days After Application, ORYSS: postemergence, direct seeded rice; for GR20, ORYSS: Growth reduction of 20% of plant growth, probit analysis
Source text: as §1, §2, §3, §4

[5] = tested on: LEFSS: sprangletop including Chinese sprangletop (Leptochloa chinensis), green sprangletop (Leptochloa dubia); conditions: for Visual Growth Reduction (%) 21 Days After Application, LEFSS: postemergence, direct seeded rice; for GR50, LEFSS: Growth reduction of 50% of plant growth; for GR50, LEFSS / GR80, LEFSS: probit analysis; for GR80, LEFSS: Growth reduction of 80% of plant growth
Source text: as §1, §2, §3, §4

[6] = tested on: ECHSS: including barnyardgrass, (Echinochloa crus-galli), junglerice, (Echinochloa colonum); conditions: for Visual Growth Reduction (%) 21 Days After Application, ECHSS: postemergence, direct seeded rice; for GR50, ECHSS: Growth reduction of 50% of plant growth; for GR50, ECHSS / GR80, ECHSS: probit analysis; for GR80, ECHSS: Growth reduction of 80% of plant growth
Source text: as §1, §2, §3, §4

Structure (SMILES) | Visual Growth Reduction (%) 21 Days After Application, SEBEX ([1]; 35 g ai/ha) | Visual Growth Reduction (%) 21 Days After Application, SEBEX ([1]; 70 g ai/ha) | GR50, SEBEX [1] | GR80, SEBEX [1] | GR50, SCPJU [2] | GR80, SCPJU [2] | Visual Growth Reduction (%) 21 Days After Application, BRAPP ([3]; 35 g ai/ha) | Visual Growth Reduction (%) 21 Days After Application, BRAPP ([3]; 70 g ai/ha) | GR50, BRAPP [3] | GR80, BRAPP [3] | Visual Growth Reduction (%) 21 Days After Application, CYPSS ([4]; 35 g ai/ha) | Visual Growth Reduction (%) 21 Days After Application, CYPSS ([4]; 70 g ai/ha) | GR50, CYPSS [4] | GR80, CYPSS [4] | Visual Growth Reduction (%) 21 Days After Application, ORYSS (ORYSS: Oryza sativa; 35 g ai/ha) | Visual Growth Reduction (%) 21 Days After Application, ORYSS (ORYSS: Oryza sativa; 70 g ai/ha) | GR20, ORYSS (ORYSS: Oryza sativa) | Visual Growth Reduction (%) 21 Days After Application, LEFSS ([5]; 35 g ai/ha) | Visual Growth Reduction (%) 21 Days After Application, LEFSS ([5]; 70 g ai/ha) | GR50, LEFSS [5] | further results
COC(=O)c1nc(-c2ccc(Cl)nc2F)c(F)c(N)c1Cl [Compound 45] | A (95-100) | A (95-100) | 1 g ai/ha | 2 g ai/ha | 1 g ai/ha | 1 g ai/ha | G (0-29) | G (0-29) | >140 g ai/ha | >140 g ai/ha | B (85-94) | A (95-100) | 3 g ai/ha | 7 g ai/ha | G (0-29) | G (0-29) | >140 g ai/ha | G (0-29) | D (60-74) | >140 g ai/ha | GR80, LEFSS [5]: >140 g ai/ha; Visual Growth Reduction (%) 21 Days After Application, ECHSS ([6]; 35 g ai/ha): F (30-44); Visual Growth Reduction (%) 21 Days After Application, ECHSS ([6]; 70 g ai/ha): B (85-94); GR50, ECHSS [6]: 16 g ai/ha; GR80, ECHSS [6]: >140 g ai/ha
COC(=O)c1nc(-c2ccc(C(F)(F)F)nc2)c(F)c(N)c1Cl [Compound 59, methyl 4-amino-5-chloro-3-fluoro-6′-(trifluoromethyl)-[2,3′-bipyridine]-6-carboxylate] | A (95-100) | A (95-100) | 1 g ai/ha | 1 g ai/ha | <17.5 g ai/ha | <17.5 g ai/ha | B (85-94) | B (85-94) | 3 g ai/ha | 16 g ai/ha | A (95-100) | A (95-100) | 2 g ai/ha | 3 g ai/ha | E (45-59) | E (45-59) | 18 g ai/ha | D (60-74) | B (85-94) | 27 g ai/ha | Visual Growth Reduction (%) 21 Days After Application, SCPJU ([2]; 35 g ai/ha): A (95-100); Visual Growth Reduction (%) 21 Days After Application, SCPJU ([2]; 70 g ai/ha): A (95-100); GR80, LEFSS [5]: 48 g ai/ha; Visual Growth Reduction (%) 21 Days After Application, ECHSS ([6]; 35 g ai/ha): B (85-94); Visual Growth Reduction (%) 21 Days After Application, ECHSS ([6]; 70 g ai/ha): B (85-94); GR50, ECHSS [6]: 3 g ai/ha; GR80, ECHSS [6]: 15 g ai/ha
COC(=O)c1nc(-c2ccc(C(F)(F)F)nc2)c(Cl)c(N)c1Cl [Compound 83] | A (95-100) | A (95-100) | 2 g ai/ha | 5 g ai/ha | <17.5 g ai/ha | <17.5 g ai/ha | A (95-100) | A (95-100) | 6 g ai/ha | 16 g ai/ha | A (95-100) | A (95-100) | 2 g ai/ha | 3 g ai/ha | E (45-59) | F (30-44) | 23 g ai/ha | B (85-94) | D (60-74) | 27 g ai/ha | Visual Growth Reduction (%) 21 Days After Application, SCPJU ([2]; 35 g ai/ha): A (95-100); Visual Growth Reduction (%) 21 Days After Application, SCPJU ([2]; 70 g ai/ha): A (95-100); GR80, LEFSS [5]: 53 g ai/ha; Visual Growth Reduction (%) 21 Days After Application, ECHSS ([6]; 35 g ai/ha): A (95-100); Visual Growth Reduction (%) 21 Days After Application, ECHSS ([6]; 70 g ai/ha): A (95-100); GR50, ECHSS [6]: 3 g ai/ha; GR80, ECHSS [6]: 9 g ai/ha
